# What was measured:
# [1] = system: hypersensitive cell death induced by Xanthomonas campestris pv. malvacearum (Xcm, race 18); experiment: Hypersensitive cell death induced by Xcm infiltration into cotton plant cotyledons; assay type: in vivo, Gossypium hirsutum; conditions: 4-PBA 2 mM co-infiltrated with Xcm race 18 at 10^8 cfu/ml; four days after inoculation; FIG. 1
# Experimental: (§1) A stock solution of 4-PBA (10 mM) was prepared extemporaneously by dissolving powder in sterile distilled water. In order to allow complete dissolution of the 4-PBA, the solution was heated at 50° C. for 10 minutes.
# The Xanthomonas campestris pv. malvacearum bacteria (Xcm, race 18) were cultured overnight in a rich nutritive medium (King B). After sedimentation by centrifugation, said bacteria were washed with sterile distilled water before being resuspended at a concentration of 10^8 cfu/ml. The resuspending of the cells is carried out either in sterile distilled water, or in a solution of 4-PBA at 2 mM. These two types of suspensions were infiltrated into cotton plant (Gossypium hirsutum) cotyledons on each side of the central vein for comparison.
# [2] = system: hypersensitive cell death induced by Pseudomonas syringae pv. tomato (Pst, avirulent strain DC3000::AvrRpt2); experiment: Hypersensitive cell death induced by Pst infiltration into Arabidopsis thaliana leaves; assay type: in vivo; conditions: 4-PBA 1 mM co-infiltrated with Pst DC3000::AvrRpt2 at 10^7 cfu/ml; six days post-inoculation; FIG. 2
# Experimental: as §1
# The bacteria (Pst, avirulent strain DC3000::AvrRpt2) were cultured overnight in a rich nutritive medium (King B). After sedimentation by centrifugation, said bacteria were washed with sterile distilled water before being resuspended at a concentration of 10^7 cfu/ml. The resuspending of the cells is carried out either in sterile distilled water, or in a solution of 4-PBA at 1 mM. These suspensions were then infiltrated into the leaves of the Arabidopsis thaliana rosette. The macroscopic symptoms were monitored over a period of six days post-inoculation.
# [3] = system: genes encoding BiP1,2, BiP3, CNX1 and CRT1; experiment: Real-time quantitative PCR of endoplasmic reticulum chaperone genes in A. thaliana leaves; assay type: in vivo, Arabidopsis thaliana; conditions: 44 hours post-inoculation, FIG. 3
# Experimental: The 4-PBA solutions used in the experiments described hereinafter were prepared as described in Example 1.
# The infection with Pst (avirulent strain DC3000::AvrRpt2) was carried out under the same conditions as those described above. An additional condition was added, corresponding to the infiltration of a solution of 4-PBA (1 mM) alone into the A. thaliana leaves.
# Samples were harvested 44 hours post-inoculation, frozen in liquid nitrogen and then stored at −80° C. until total RNA extraction. The total RNA was reverse transcribed so as to synthesize cDNAs. These cDNAs were used as a template in real-time quantitative PCR experiments. Primers specific for the genes encoding the binding proteins (BiP1,2 and BiP3), calnexin 1 (CNX1) and calreticulin 1 (CRT1) were designed so as to measure the expression of these genes. The expression of the genes of interest was standardized with respect to that of an actin gene. These experiments were repeated once, including one as a duplicate per experiment.
# [4] = system: tobacco leaves (plant cells); experiment: Concentration range infiltrated into tobacco leaves, macroscopic symptoms; assay type: in vivo, Nicotiana tabacum; conditions: 4-PBA at 0.5, 1, 2.5 and 5 mM infiltrated into tobacco leaves; 48 hours post-infiltration; FIG. 4A
# Experimental: (§2) The concentration range presented in FIG. 4A was produced by infiltration into tobacco leaves of 4-PBA solutions at 0.5, 1, 2.5 and 5 mM. The macroscopic symptoms were evaluated 48 hours post-infiltration. Samples were also harvested at the times indicated in FIG. 4B and treated as described above so as to be analyzed by real-time quantitative PCR. Primers specific for all of the nine genes encoding BiP proteins were designed for this purpose.
# [5] = system: genes encoding BiP proteins; experiment: Real-time quantitative PCR of BiP genes in tobacco leaves; assay type: in vivo, Nicotiana tabacum; conditions: 4-PBA infiltrated into tobacco leaves; FIG. 4B
# Experimental: as §2
# Xcm race 20 = experiment: In vitro bacterial growth in King B liquid medium, absorbance at 600 nm; assay type: cell-based, Xanthomonas campestris pv. malvacearum; conditions: 4-PBA 1 mM in King B liquid medium; approximately 16 hours, 30° C.; FIG. 5
# Experimental: The effect of 4-PBA on phytopathogenic bacteria was tested in vitro on the bacterial strain Xcm race 20. The strain was cultured in King B liquid medium in the presence or absence of 4-PBA. The 4-PBA solution was prepared extemporaneously as described above. The nutritive medium was inoculated either using glycerol stocks, or using bacterial colonies freshly cultured in solid medium. The nutritive medium was then supplemented with the 4-PBA solution in order to achieve a final concentration of 1 mM (final volume of 10 ml). […] The tubes were then incubated overnight (approximately 16 hours) with gentle shaking at 30° C. The bacterial growth was then measured by nephelometry by measuring the absorbance of an aliquot of the bacterial cultures at 600 nm. This experiment was repeated three times. Each experiment contained one technical triplicate per condition, i.e. condition with 4-PBA and condition without 4-PBA.
# [6] = system: hypersensitive cell death induced by cryptogein; experiment: Hypersensitive cell death induced in tobacco by cryptogein (data not shown); assay type: in vivo
# Experimental: (§3) The effect of 4-PBA on cell death of hypersensitive nature was tested on several pathosystems, including those presented in FIGS. 1 & 2, namely Gossypium hirsutum/Xanthomonas campestris pv. malvacearum and Arabidopsis thaliana/Pseudomonas syringae. pv. tomato, respectively. […] The latter data concern hypersensitive cell death induced in tobacco by an elicitor of fungal origin, cryptogein, and nonhost hypersensitive cell death in tobacco interacting with the bacterium Pseudomonas syringae pv. tomato.
# [7] = system: nonhost hypersensitive cell death induced by Pseudomonas syringae pv. tomato; experiment: Nonhost hypersensitive cell death in tobacco interacting with Pseudomonas syringae pv. tomato (data not presented); assay type: in vivo
# Experimental: as §3
smiles,measurement,setting,value
"O=C(O)CCCc1ccccc1 [4-PBA, 4-phenylbutyric acid]",hypersensitive symptoms (macroscopic) in cotton plant cotyledonary leaves,[1],strongly represses the hypersensitive symptoms
same,hypersensitive symptoms (macroscopic) in A. thaliana leaves,[2],capable of abolishing the hypersensitive symptoms
same,"expression of genes encoding chaperone proteins (BiP1,2, BiP3, CNX1, CRT1)","[3]; 4-PBA 1 mM infiltrated alone, standardized to actin",significantly induce the expression of genes encoding chaperone proteins
same,"expression of BiP1,2, CNX1 and CRT1 genes, 4-PBA combined with Pst infection",[3]; 4-PBA 1 mM plus Pst,synergistic effect
same,toxicity to plant cells (macroscopic symptoms),[4],not toxic to the plant cells
same,BiP gene expression in tobacco,[5],capable of inducing BiP gene expression in tobacco
same,bacterial growth (absorbance at 600 nm),Xcm race 20,strongly inhibits the growth
same,hypersensitive cell death induced by cryptogein in tobacco,[6],repress hypersensitive cell death
same,nonhost hypersensitive cell death in tobacco with Pseudomonas syringae pv. tomato,[7],confirm the anti-cell death properties

# Source: US9730442B2, “Use of 4-phenylbutyric acid for improving the tolerance of plants to harmful biological organisms” (INSTITUT DE RECHERCHE POUR LE DÉVELOPPEMENT (IRD), priority 2012, dated 2017)
